System: HT-29 human colon cancer cells
Experiment: MTT cell growth inhibition, HT-29
Format: cell-based
Conditions: Homo sapiens; HT-29, 24 h (Table 5); in combinations the IC50 of ASA with fixed concentrations of SNAP and/or ADT-OH; read-out: IC50 at 24 hours for HT-29 cell growth inhibition
Protocol: HT-29, SW-480 and HCT-15 human colon adenocarcinoma, MIA PaCa-2 and BxPC-3 human pancreatic cancer, LNCAP human prostate cancer, A549 human lung cancer, MCF-7 (estrogen receptor positive), MDA-MB 231 and SK-BR-3 (estrogen receptor negative) human breast cancer, and Jurkats human leukemia cell lines were obtained from American Type Tissue Collection (Manassas, Va.). All cells lines were grown as monolayers except for the Jurkats which were grown in suspension. The pancreatic and breast cancer cells were grown in Dulbecco's modified Eagle's medium, the prostate, Jurkat, SW-480 and HCT-15 colon cells were grown in RPMI 1640 medium, the lung cells were grown in F-12 and the colon HT-29 cells were grown in McCoy 5A. All media were supplemented with 10% fetal calf serum (Invitrogen, Carlsbad, Calif.) penicillin (50 U/ml), and streptomycin (50 μg/ml) (Invitrogen, Carlsbad, Calif.). Cells were seeded on culture dishes at a density of 25×10^3 cells/cm^2 and incubated at 37° C. in 5% CO2 and 90% relative humidity. Single cell suspensions were obtained by trypsinization (0.05% trypsin/EDTA), and cells were counted using a hemocytometer. Viability was determined by the trypan blue dye exclusion method.
Cell growth inhibitory effect of NOSH compounds were measured using a colorimetric MTT assay kit (Roche, Indianapolis, Ind.). Cancer cells were plated in 96-well plates at a density of 50,000 cells/well. The cells were incubated for 24 h with different concentrations of NOSH compounds. After the indicated time, 10 μl of MTT dye (3-[4,5-dimethylthiazol-2-yl]-2,5-diphenyl tetrazolium bromide, 5 mg/ml in phosphate buffered saline), was added to each well, and the plates were incubated for 2 hours at 37° C. Then, the media was aspirated, and add 100 μl of the solubilization solution (10% SDS in 0.01 M HCl) was added to each well to solubilize the formant crystals. The absorbance of the plates was measured on an ELISA reader at a wavelength of 570 nm. Each sample was performed in triplicate, and the entire experiment was repeated three times.
HT-29 human colon cancer cells were obtained from American Type Tissue Collection (Manassas, Va.) and grown as monolayer in McCoy 5A media that was supplemented with 10% fetal calf serum (Invitrogen, Carlsbad, Ca.), penicillin (50 U/ml), and streptomycin (50 μg/ml) (Invitrogen, Carlsbad, Calif.).
Growth inhibition was measured using a colorimetric MTT assay kit (Roche, Indianapolis, Ind.). Proliferation (PCNA) was assessed using an ELISA kit from Calbiochem, (La Jolla, Calif.). Cell cycle phase distributions and apoptosis of control and treated cells were determined as previously described. All methods are described in Chattopadhyay et al., Biochemical Pharmacology, 2012, 83(6), 715-722.
HT-29, SW-480 and HCT-15 human colon adenocarcinoma, MIA PaCa-2 and BxPC-3 human pancreatic cancer, LNCAP human prostate cancer, A549 and H383 human lung cancer, MCF-7, MDA-MB 231 and SK-BR-3 human breast cancer and Jurkat T cell human leukemia cell lines were obtained from American Type Tissue Collection (Manassas, Va.) All cells lines were grown as monolayers except for the Jurkat T cells which were grown as suspension culture. The pancreatic and breast cancer cells were grown in Dulbecco's modified Eagle's medium, the prostate, Jurkat, SW-480 and HCT-15 colon cells were grown in RPMI 1640 medium, the lung cells were grown in F-12 and the colon HT-29 cells were grown in McCoy 5A. All media were supplemented with 10% fetal calf serum (Invitrogen, Carlsbad, Calif.) penicillin (50 U/ml), and streptomycin (50 μg/ml) (Invitrogen, Carlsbad, Calif.). Cells were seeded on culture dishes at a density of 25×10^3 cells/cm^2 and incubated at 37° C. in 5% CO2 and 90% relative humidity. Single cell suspensions were obtained by trypsinization (0.05% trypsin/EDTA), and cells were counted using a hemacytometer. The final DMSO concentration was adjusted in all media to 1%. Viability was determined by the trypan blue dye exclusion method. […]

Row | IC50 | Compound
1 | 26 ± 3 µM | Oc1ccc(-c2cc(=S)ss2)cc1 [ADT-OH, 5-(4-hydroxyphenyl)-3H-1,2-dithiole-3-thione, reference compound]
2 | 530 ± 45 µM | CC(=O)N[C@H](C(=O)O)C(C)(C)SN=O [SNAP, S-nitroso-N-acetyl-penicillamine, reference compound]

Same assay, conditions: Homo sapiens; HT-29 colon cancer cells, 24 hours (Table 3); read-out: IC50 at 24 hours for cell growth inhibition

Row | IC50 | Compound
3 | 185 ± 15 µM | CC(=O)Oc1ccccc1C(=O)Oc1cccc(CO[N+](=O)[O-])c1 [m-NO-ASA, 2-(acetyloxy)benzoic acid 3-(nitrooxymethyl)phenyl ester, reference compound]
4 | 10 ± 2 µM | CC(=O)Oc1ccccc1C(=O)Oc1ccc(CO[N+](=O)[O-])cc1 [p-NO-ASA, 2-(acetyloxy)benzoic acid 4-(nitrooxymethyl)phenyl ester, reference compound]
5 | 8 ± 3 µM | CC(=O)Oc1ccccc1C(=O)Oc1ccccc1CO[N+](=O)[O-] [o-NO-ASA, 2-(acetyloxy)benzoic acid 2-(nitrooxymethyl)phenyl ester, reference compound]

Row | Compound | IC50
6 | CC(=O)Oc1ccccc1C(=O)Oc1ccc(-c2cc(=S)ss2)cc1 [HS-ASA, 4-(5-thioxo-5H-1,2-dithiol-3-yl)-phenyl 2-acetoxybenzoate, reference compound] | 4 ± 0.5 µM
7 | CC(=O)Oc1ccccc1C(=O)OCCCOO[N+](=O)[O-] [aliphatic-NO-ASA, 3-(nitroperoxy)propyl 2-acetoxybenzoate, reference compound] | 750 ± 35 µM

— patent publication US10450260B2, “NO- and H2S-releasing compounds” (RESEARCH FOUNDATION OF THE CITY UNIVERSITY OF NEW YORK, priority 2011, dated 2019)
